# Data as given in the NIST ThermoML archive (doi:10.1016/j.fluid.2009.12.009).
# Test: xn = mol fraction of the nth substance listed
# Details: 298.15 K, 101 kPa, Liquid, holographic laser-interferometry using flow junction cell
SMILES,binary diffusion coefficient (x1 = 0.013) [m2/s],binary diffusion coefficient (x1 = 0.1) [m2/s],binary diffusion coefficient (x1 = 0.3) [m2/s],binary diffusion coefficient (x1 = 0.5) [m2/s],binary diffusion coefficient (x1 = 0.7) [m2/s],binary diffusion coefficient (x1 = 0.9) [m2/s],binary diffusion coefficient (x1 = 0.97) [m2/s],binary diffusion coefficient (x1 = 0.004) [m2/s],binary diffusion coefficient (x1 = 0.975) [m2/s],binary diffusion coefficient (x1 = 0.002) [m2/s],binary diffusion coefficient (x1 = 0.05) [m2/s],binary diffusion coefficient (x1 = 0.2) [m2/s],binary diffusion coefficient (x1 = 0.4) [m2/s],binary diffusion coefficient (x1 = 0.6) [m2/s],binary diffusion coefficient (x1 = 0.8) [m2/s],binary diffusion coefficient (x1 = 0.015) [m2/s],binary diffusion coefficient (x1 = 0.985) [m2/s],binary diffusion coefficient (x1 = 0.0125) [m2/s],binary diffusion coefficient (x1 = 0.9915) [m2/s],binary diffusion coefficient (x1 = 0.9925) [m2/s]
CCCCCl [1-chlorobutane] + CCCO,1.2e-09,1.18e-09,1.13e-09,1.09e-09,1.14e-09,1.45e-09,2.51e-09,,,,,,,,,,,,,
CC(C)=O [acetone] + O,,8e-10,6.3e-10,8.3e-10,1.63e-09,3.44e-09,,1.25e-09,4.62e-09,,,,,,,,,,,
CCCO [propan-1-ol] + O,,1.7e-10,,,,5.3e-10,,,,1.04e-09,5.2e-10,1e-10,1.9e-10,3.3e-10,5e-10,,,,,
CC(C)=O [acetone] + CCCO,,1.22e-09,1.4e-09,1.64e-09,1.98e-09,2.67e-09,,,,,,1.33e-09,1.49e-09,1.74e-09,2.4e-09,1.14e-09,3.12e-09,,,
CC(C)=O [acetone] + CCCCO,,1e-09,1.13e-09,1.38e-09,1.72e-09,2.43e-09,,,,,,1.07e-09,1.29e-09,1.49e-09,1.85e-09,,,9.5e-10,2.75e-09,2.73e-09
